Measurements taken from ChEMBL document CHEMBL5113408, “Design, synthesis and antitumour activity of novel 5(6)-amino-benzimidazolequinones containing a fused morpholine” (Eur J Med Chem, 2022).
Activity calls are given as the source filed them. The calls are words filed in the database; no cut-off is given here.

Columns and labels:
MGC-803 [1] = assay: Antiproliferative activity against human MGC-803 cells assessed as inhibition of cell growth by SRB assay; type: functional, cell-based
MCF7 = assay: Antiproliferative activity against human MCF7 cells assessed as inhibition of cell growth by SRB assay; type: functional, cell-based
HGC-27 [2] = assay: Antiproliferative activity against human HGC-27 cells assessed as inhibition of cell growth incubated for 72 hrs by SRB assay; type: functional, cell-based; settings: HGC-27, 72 h
MGC-803 [3] = assay: Antiproliferative activity against human MGC-803 cells assessed as inhibition of cell growth incubated for 24 to 72 hrs by SRB assay; type: functional, cell-based; settings: dose 0.25-8 µM, time 24-72 hrs, DDE = dose-dependent effect
HGC-27 [4] = assay: Antiproliferative activity against human HGC-27 cells assessed as inhibition of cell growth incubated for 24 to 72 hrs by SRB assay; type: functional, cell-based; settings: dose 0.25-8 µM, time 24-72 hrs, DDE = dose-dependent effect
HGC-27 [5] = assay: Induction of apoptosis in human HGC-27 cells assessed as increase in bax/bcl-2 expression level at 1 to 4 uM incubated for 48 hrs by Western blot analysis; type: functional, cell-based; settings: dose 1-4 µM
HGC-27 [6] = assay: Induction of apoptosis in human HGC-27 cells assessed as decrease in caspase 3 protein expression level at 1 to 4 uM incubated for 48 hrs by Western blot analysis; type: functional, cell-based; settings: dose 1-4 µM
HGC-27 [7] = assay: Induction of apoptosis in human HGC-27 cells assessed as decrease in caspase 9 protein expression level at 1 to 4 uM incubated for 48 hrs by Western blot analysis; type: functional, cell-based; settings: dose 1-4 µM
MGC-803 [8] = assay: Induction of cell cycle arrest in human MGC-803 cells assessed as accumulation of cells at S phase at 1 uM incubated for 36 hrs by PI staining based flow cytometry analysis (reference value: 20.5%); type: functional
HGC-27 [9] = assay: Induction of cell cycle arrest in human HGC-27 cells assessed as accumulation of cells at G1 phase at 2 uM incubated for 36 hrs by PI staining based flow cytometry analysis (reference value: 49.6%); type: functional
HGC-27 [10] = assay: Induction of cell cycle arrest in human HGC-27 cells assessed as accumulation of cells at G2/M phase at 4 uM incubated for 36 hrs by PI staining based flow cytometry analysis (reference value: 26.2%); type: functional
MGC-803 [11] = assay: Induction of cell cycle arrest in human MGC-803 cells assessed as decrease in cyclin-B1 level at 1 to 4 uM by Western blot analysis; type: functional, cell-based; settings: dose 1-4 µM
HGC-27 [12] = assay: Induction of cell cycle arrest in human HGC-27 cells assessed as decrease in p-cdc25c level at 1 to 4 uM by Western blot analysis; type: functional, cell-based; settings: dose 1-4 µM
HGC-27 [13] = assay: Activation of ROS/JNK signalling in human HGC-27 cells assessed as increase in p-ASK1 level by Western blot analysis; type: cell-based; settings: filed as activator, dose 1-4 µM, DDE = dose-dependent effect
MGC-803 [14] = assay: Induction of apoptosis in human MGC-803 cells incubated for 48 hrs by Annexin V-FITC and PI staining based flow cytometry analysis; type: functional
HGC-27 [15] = assay: Induction of apoptosis in human HGC-27 cells incubated for 48 hrs by Annexin V-FITC and PI staining based flow cytometry analysis; type: functional
HGC-27 [16] = assay: Induction of apoptosis in human HGC-27 cells incubated for 48 hrs in presence of NAC by Annexin V-FITC and PI staining based flow cytometry analysis; type: functional
HGC-27 [17] = assay: Induction of DNA damage in human HGC-27 cells assessed as increase in gamma-H2AX generation incubated for 48 hrs by Western blot analysis; type: functional, cell-based; settings: DDE = dose-dependent effect
MGC-803 [18] = assay: Antitumor activity against human MGC-803 cells xenografted with BALB/c mouse assessed as wrinkled nuclei at 10 to 20 mg/kg, ip administered once every two days; type: functional, organism-based; settings: dose 10-20 mg/kg
MGC-803 [19] = assay: Antitumor activity against human MGC-803 cells xenografted with BALB/c mouse assessed as vacuolated cytoplasm at 10 to 20 mg/kg, ip administered once every two days; type: functional, organism-based; settings: dose 10-20 mg/kg
[20] = Toxicity in BALB/c mouse xenografted with human MGC-803 cells assessed as effect on ALT level at 10 to 20 mg/kg, ip administered once every two days; type: organism-based; settings: in vivo, dose 10-20 mg/kg

Cc1ccc(NC2=CC(=O)c3nc4n(c3C2=O)[C@H]2OC[C@@H](O)[C@H]2OC4)cc1C
IC50 (MGC-803 [1]): 860 nM | IC50 (MCF7): 2080 nM | IC50 (HGC-27 [2]): 1740 nM | Activity (MGC-803 [3]): Dde | Activity (HGC-27 [4]): Dde | Activity (HGC-27 [5]): Active | Activity (HGC-27 [6]): Active | Activity (HGC-27 [7]): Active | Activity (MGC-803 [8]): 35.4% | Activity (HGC-27 [9]): 33.5% | Activity (HGC-27 [10]): 33.3% | Activity (MGC-803 [11]): Active | Activity (HGC-27 [12]): Active | Activity (HGC-27 [13]): Dde | Activity (MGC-803 [14]): 55.4% | Activity (HGC-27 [15]): 54.5% | Activity (HGC-27 [16]): 1.4% | Activity (HGC-27 [17]): Dde | Activity (MGC-803 [18]): Active | Activity (MGC-803 [19]): Active | Activity [20]: Non-Toxic
